Results as given in ChEMBL document CHEMBL5042524, “Discovery of Novel Histone Deacetylase 6 (HDAC6) Inhibitors with Enhanced Antitumor Immunity of Anti-PD-L1 Immunotherapy in Melanoma” (J Med Chem, 2022).
Each block holds one molecule with its values, some of them ahead of it. Calls of active or inactive are those of the source. The rule behind the calls is not given here.

Legend:
[1] = biological target: T1, Histone deacetylase 8 (Homo sapiens, UniProt Q9BY41); test: Inhibition of full length recombinant human C-terminal His tagged HDAC8 expressed in baculovirus infected Sf9 insect cells using Ac-Leu-GlyLys (Tfa)-AMC as substrate preincubated for 5 mins followed by substrate addition and measured after 30 mins by fluorescence microtiter plate reader assay
T1 sequence (Q9BY41 whole entry): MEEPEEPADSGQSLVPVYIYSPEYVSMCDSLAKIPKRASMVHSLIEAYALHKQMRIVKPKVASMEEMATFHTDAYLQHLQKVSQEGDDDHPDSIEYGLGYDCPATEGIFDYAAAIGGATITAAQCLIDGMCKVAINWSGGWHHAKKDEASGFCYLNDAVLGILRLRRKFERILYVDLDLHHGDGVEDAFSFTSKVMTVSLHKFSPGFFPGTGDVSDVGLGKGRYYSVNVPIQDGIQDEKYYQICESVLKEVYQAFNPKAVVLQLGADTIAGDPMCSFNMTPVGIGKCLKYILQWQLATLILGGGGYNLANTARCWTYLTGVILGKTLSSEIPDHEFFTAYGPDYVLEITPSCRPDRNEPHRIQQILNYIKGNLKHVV

[2] = system: HCT-116; test: cells; format: functional, cell-based; conditions: Homo sapiens, HCT-116, 48 h
Description: Antiproliferative activity against human HCT-116 cells assessed as inhibition of cell proliferation measured after 48 hrs by MTT assay

[3] = system: A549; test: cells; format: functional, cell-based; conditions: Homo sapiens, A549, 48 h
Description: Antiproliferative activity against human A549 cells assessed as inhibition of cell proliferation measured after 48 hrs by MTT assay

[4] = system: B16-F10; test: cells; format: functional, cell-based; conditions: Mus musculus, B16-F10, 48 h
Description: Antiproliferative activity against mouse B16-F10 cells assessed as inhibition of cell proliferation measured after 48 hrs by MTT assay

[5] = system: B16-F10; test: Induction of cell cycle arrest in mouse B16-F10 cells assessed as decrease in cells at G1 phase at 0.1 to 1 uM incubated for 48 hrs by RNase/PI staining based flow cytometry analysis; format: functional; conditions: dose 0.1-1 µM
[6] = system: Jurkat; test: Upregulation of acetylated alpha-tubulin expression in human Jurkat T cells incubated for 6 hrs by Western blot analysis; format: functional, cell-based; conditions: dose 0.1-2 µM
[7] = system: Jurkat; test: Effect on acetyl-SMC3 expression level in human Jurkat T cells at 0.1 to 0.8 uM incubated for 6 hrs by Western blot analysis; format: functional, cell-based; conditions: dose 0.1-0.8 µM
[8] = system: Jurkat; test: Effect on acetyl-H3 expression level in human Jurkat T cells at 0.1 to 0.4 uM incubated for 6 hrs by Western blot analysis; format: functional, cell-based; conditions: dose 0.1-0.4 µM
[9] = AUC (0 to infinity) in Sprague-Dawley rat at 10 mg/kg, po measured upto 48 hrs by LC-MS/MS analysis; format: ADME, organism-based; design: route oral, dose 10 mg/kg, time <=48; conditions: in vivo
[10] = AUC (0 to infinity) in Sprague-Dawley rat at 2 mg/kg, iv measured upto 48 hrs by LC-MS/MS analysis; format: ADME, organism-based; design: route intravenous, dose 2 mg/kg, time <=48; conditions: in vivo
[11] = AUC(0 to t) in Sprague-Dawley rat at 10 mg/kg, po measured upto 48 hrs by LC-MS/MS analysis; format: ADME, organism-based; design: route oral, dose 10 mg/kg, time <=48; conditions: in vivo
[12] = MRT(0 to t) in Sprague-Dawley rat at 10 mg/kg, po measured upto 48 hrs by LC-MS/MS analysis; format: ADME, organism-based; conditions: in vivo
[13] = MRT (0 to infinity) in Sprague-Dawley rat at 2 mg/kg, iv measured upto 48 hrs by LC-MS/MS analysis; format: ADME, organism-based; conditions: in vivo
[14] = Half life in Sprague-Dawley rat at 2 mg/kg, iv measured upto 48 hrs by LC-MS/MS analysis; format: ADME, organism-based; conditions: in vivo
[15] = Tmax in Sprague-Dawley rat at 2 mg/kg, iv measured upto 48 hrs by LC-MS/MS analysis; format: ADME, organism-based; conditions: in vivo
[16] = Clearance in Sprague-Dawley rat at 2 mg/kg, iv measured upto 48 hrs by LC-MS/MS analysis; format: ADME, organism-based; conditions: in vivo
[17] = Clearance in Sprague-Dawley rat at 10 mg/kg, po measured upto 48 hrs by LC-MS/MS analysis; format: ADME, organism-based; conditions: in vivo
[18] = Apparent volume of distribution in Sprague-Dawley rat at 10 mg/kg, po measured upto 48 hrs by LC-MS/MS analysis; format: ADME, organism-based; conditions: in vivo
[19] = Cmax in Sprague-Dawley rat at 10 mg/kg, po measured upto 48 hrs by LC-MS/MS analysis; format: ADME, organism-based; design: route oral, dose 10 mg/kg, time <=48; conditions: in vivo
[20] = system: B16-F10; test: Antitumor activity against mouse B16-F10 cells allografted in C57BL/6 mouse assessed as tumor growth inhibition at 50 mg/kg, ip administered daily for 14 days by caliper method (Rvb= 63%); format: functional; conditions: 336 h, time 14 day, read-out: TGI
[21] = system: B16-F10; test: Antitumor activity in mouse B16-F10 cells allografted in C57BL/6 mouse assessed as tumor growth inhibition at 50 mg/kg, ip administered for 14 days in presence of 2-(5-chloro-2-(3-cyanobenzyloxy)-4-((2-methylbiphenyl-3-yl)methoxy)benzylamino)-2-methylpropanoic acid by caliper method (Rvb= 63%); format: functional; conditions: 336 h, time 14 day, read-out: TGI
[22] = Toxicity in C57BL/6 mouse bearing B16-F10 tumor assessed as morphological changes in kidney at 50 mg/kg, ip administered for 14 days by H and E staining based microscopic analysis; format: organism-based; conditions: in vivo, 336 h, time 14 day
[23] = Toxicity in C57BL/6 mouse bearing B16-F10 tumor assessed as morphological changes in heart at 50 mg/kg, ip administered for 14 days by H and E staining based microscopic analysis; format: organism-based; conditions: in vivo, 336 h, time 14 day
[24] = Toxicity in C57BL/6 mouse bearing B16-F10 tumor assessed as morphological changes in liver at 50 mg/kg, ip administered for 14 days by H and E staining based microscopic analysis; format: organism-based; conditions: in vivo, 336 h, time 14 day
[25] = Cardiotoxicity in C57BL/6 mouse at 50 mg/kg, IG administered once daily via gavage for 14 days by ECG analysis; format: toxicity, organism-based; conditions: in vivo, po, 336 h, time 14 day
[26] = system: B16-F10; test: Antitumour activity against mouse B16-F10 cells allografted in C57BL/6 mouse model assessed as decrease in PD-L1 expression level by Western blot analysis relative to control; format: functional; design: scale not given: the % may be the effect or the level left
[27] = system: B16-F10; test: (§1) Antitumour activity against mouse B16-F10 cells allografted in C57BL/6 mouse model assessed as increase in CD3 positive/CD4 positive cells in tumor at 50 mg/kg, ip administered for 14 days by flow cytometry analysis (Rvb= 8.73%); format: functional; conditions: time 14 day
[28] = system: B16-F10; test: as §1, with “days in presence of 2-(5-chloro-2-(3-cyanobenzyloxy)-4-((2-methylbiphenyl-3-yl)methoxy)benzylamino)-2-methylpropanoic acid” for “days”; format: functional; conditions: time 14 day
[29] = system: B16-F10; test: Antitumour activity against mouse B16-F10 cells allografted in C57BL/6 mouse model assessed as increase in CD3 positive/CD8 positive cells in tumor at 50 mg/kg, ip administered for 14 days in presence of 2-(5-chloro-2-(3-cyanobenzyloxy)-4-((2-methylbiphenyl-3-yl)methoxy)benzylamino)-2-methylpropanoic acid by flow cytometry analysis (Rvb= 6.65%); format: functional; conditions: time 14 day
[30] = Toxicity in C57BL/6 mouse allografted with B16-F10 cells assessed as body weight loss at 50 mg/kg, ip administered daily for 14 days in combination with 2-(5-chloro-2-(3-cyanobenzyloxy)-4-((2-methylbiphenyl-3-yl)methoxy)benzylamino)-2-methylpropanoic acid; format: organism-based; conditions: in vivo, 336 h, time 14 day
[31] = system: Mus musculus; test: Myelosuppression in C57BL/6 mouse assessed as change in lymphocyte count at 50 mg/kg, IG administered once daily via gavage for 14 days; format: toxicity, organism-based; conditions: in vivo, po, 336 h, time 14 day
[32] = system: Mus musculus; test: Myelosuppression in C57BL/6 mouse assessed as change in granulocyte count at 50 mg/kg, IG administered once daily via gavage for 14 days; format: toxicity, organism-based; conditions: in vivo, po, 336 h, time 14 day

IC50 [1]: 14600 nM
IC50 [2]: 1170 nM
IC50 [3]: 2220 nM
IC50 [4]: 5260 nM
Structure (SMILES): COc1ccc(-c2ncc(C(=O)NCCCCCCC(=O)NO)[nH]2)c(OC)c1
Activity [5]: Active
Activity [6]: Dose-Dependent Effect
Activity [7]: Active
Activity [8]: Active

AUC [9]: 138.6 ng·h/mL
AUC(0-inf) [10]: 319 ng·h/mL
IC50 [1]: 9020 nM
IC50 [2]: 510 nM
IC50 [3]: 1910 nM
IC50 [4]: 2310 nM
AUC(0-t) at 48 h [11]: 134 ng·h/mL
MRT last at 48 h [12]: 7.4 h
MRT inf [13]: 1.6 h
half-life [14]: 6.2 h
Tmax [15]: 4.98 min
clearance [16]: 105 mL/min/kg
CL [17]: 2402 mL/min/kg
Vz/F [18]: 1485.8 L/kg
Cmax [19]: 35 ng/mL
Structure (SMILES): COc1ccc(-c2ncc(C(=O)NCCCCCCC(=O)NO)s2)c(OC)c1
Activity [6]: Dose-Dependent Effect
inhibition in vivo at 50 mg/kg [20]: 48%
inhibition in vivo at 50 mg/kg [21]: 58%
Activity [22]: Non-Toxic
Activity [23]: Non-Toxic
Activity [24]: Non-Toxic
Activity [25]: Non-Toxic
Activity [26]: 20%
Activity [27]: 8.72%
Activity [28]: 26.3%
Activity [29]: 16.5%
Activity [7]: Active
Activity [8]: Active
Activity [30]: Non-Toxic
Activity [31]: Non-Toxic
Activity [32]: Non-Toxic
